In US12600732B2, “Bifunctional compounds for degrading BTK via ubiquitin proteosome pathway” (NURIX THERAPEUTICS, INC., priority 2019, dated 2026):
Where “and” joins values, the source holds several entries; their conditions need not be identical. Identical values can stand only once. Like-named read-outs stand apart in the source and are kept apart here.

Legend:
[1] = tested on: TMD8 tumor cells; assay: TMD8 xenograft efficacy study (wild-type BTK); assay type: in vivo, mouse; settings: TMD8 WT, QD
Protocol: […] Tumor growth inhibition (% TGI) were calculated on the final day of measurement using the equation [1−(T−T0/C−T0)]×100, where T and C represent the mean size of tumors in the treated (T) and control (C) groups, and T0 refers to the tumor size at randomization.
(§1) This example examines the activity of various BTK CTMs in relevant disease models, including the WT and C481S TMD8 model, which models B cell malignancies with/without inhibitor-driven BTK mutations at C481.

[2] = PK data for BTK CTMs (in vivo plasma concentrations); settings: for Vd: read-out: Volume of Distribution
Source text: The present example evaluates in vivo plasma concentrations of BTK CTMs to develop PK-PD-efficacy relationship and predict human exposure.

[3] = tested on: TMD8 C481S cells; assay: Cell viability assay (CellTiter-Glo), TMD8 C481S cells; settings: for EC50: Homo sapiens, TMD8, 72 h; for EMAX (% viable cells): TMD8 C481S cells, treatment time 72 h
Protocol: (§4) Cell viability was determined using CellTiter-Glo 2.0 Luminescent Cell Viability Assay (Promega, G9242), which quantitates the amount of ATP present as a proxy for the number of viable cells in culture. Cells were plated with densities between 2000-4000 cells per well in 96-well plates. […] CellTiter-Glo reagent was added to cells at a dilution of 1:20, and the plate was incubated ten minutes at room temperature prior to reading the luminescence signal using an EnVision plate reader. Controls included cells treated with DMSO and wells that contained no cells, only media. Background luminescence signal was determined by control wells containing no cells, only media, and was then subtracted from all sample wells. Luminescence values were then normalized to DMSO-treated wells and reported at proportion viable cells.

[4] = tested on: primary human T cells; assay: T cell activation assay, IL-2 secretion (ELISA); assay type: cell-based
Protocol: (§2) This example evaluates whether CTMs with IMiD activity affect T cell activation. […] These assays were performed to assess whether BTK CTMs with and without IMiD activity affected activation of primary human T cells after stimulation of the T cell receptor with anti-CD3/ati-CD28 stimulation. T cell activation was measured by IL-2 secretion (ELISA assay) and upregulation of activation markers CD25 and CD69 on the surface of T cells (flow cytometry). Data are presented as the fold-change of response relative to baseline (stimulation with anti-CD3/anti-CD28 stimulation in the absence of compound).

[5] = tested on: primary human T cells; assay: T cell activation assay, CD25 and CD69 staining (flow cytometry); assay type: cell-based; settings: fold-change of response relative to baseline
Protocol: as §2

[6] = molecular target: BTK (Homo sapiens, UniProt Q06187); assay: BTK remaining in TMD8 WT mouse xenograft study; assay type: in vivo; parameters: from tissue; host or cells: TMD8 xenograft in CB.17 SCID mice; settings: QD
Source text: Efficacy in Mouse Xenograft Models
as §1

[7] = tested on: TMD8 cells; assay: Cell viability assay (CellTiter-Glo), TMD8 cells; settings: for EC50: Homo sapiens, TMD8, 72 h; for EMAX (% viable cells): TMD8 cells, treatment time 72 h
Protocol: as §4
Here, the ability of CTMs to affect viability in BTK-dependent cell lines was assessed.

[8] = molecular target: BTK C481S (Homo sapiens, UniProt Q06187, C481S); assay: BTK degradation (Total BTK HTRF) in TMD8 cells expressing BTK-C481S; assay type: cell-based; parameters: endogenous in cells; host or cells: TMD8 BTK-C481S (clone2C3), Cas9 RNP knock-in; settings: TMD8 BTK-C481S (clone2C3) cells, treatment time 4 h
Protocol: BTK levels were determined using Cisbio Total-BTK HTRF (Homologous Time-Resolved Fluorescence) kit (63ADK064PEG) according to the manufacturer's protocol. Briefly, cells were incubated in 1× supplied lysis buffer for 30 minutes. In an opaque white low volume 96-well plate (Cisbio, 66PL96005), cell lysate was combined with two different specific BTK antibodies, one conjugated with Eu^3+-Cryptate FRET donor and one conjugated with d2 FRET acceptor. Assay controls include wells containing cell lysate with only the Eu^3+-Cryptate FRET donor antibody and wells containing both HTRF antibodies and lysis buffer without cells or control lysate provided by Cisbio. HTRF ratio was calculated as (acceptor signal at 665 nm/donor signal at 620 nm)×10^4. Background HTRF levels were determined from the control well containing the donor, but no acceptor, antibody. Background HTRF levels were subtracted from all samples. Readouts were reported as HTRF levels relative to HTRF levels of DMSO-treated cells. Four-parameter non-linear regressions were performed in GraphPad Prism 7.02 to obtain DC50 values.
BTK Degradation (Total BTK HTRF) at Four Hours in TMD8 Cells Expressing BTK-C481S
This example evaluates the potency of CTM in degrading […]. The BTK binding moieties utilized in CTMs bind to the BTK active site. This example evaluates whether the active site mutation C481S affects CTM-induced degradation of BTK.

[9] = molecular target: T1, BTK (Mus musculus, UniProt P35991); assay: In vivo degradation of BTK in mouse PD experiments with oral dosing
T1 construct: from tissue; host or cells: mouse blood B cells / splenocytes (CD-1 or BALB/c)
Method in brief: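 BTK in blood or splenocytes read by flow cytometry (or HTRF), degradation taken as B-cell minus T-cell BTK MFI versus vehicle. Mice (CD-1 or BALB/c) received compound orally, initially 90 mg/kg for 6 h, then lower doses and longer time points.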

[10] = tested on: B cell receptor (BCR) signaling; assay: B cell activation assay (flow cytometry), mouse B cells; assay type: cell-based; settings: treatment 4 h, IgM stimulation 18 h
Protocol: Compound was present throughout the stimulation. Cells were stained with Live/Dead dye (Fisher L34976) and then fluorophore-conjugated antibodies against CD20 (Biolegend 302330), CD3 (BD Pharmingen 557705), CD86 (Biolegend 305416) and CD69 (Biolegend 310906). Stained cells were fixed in PFA and run on an Attune N×T Acoustic Focusing Flow Cytometer (Thermo-Fisher A29004), and data was analyzed using FlowJo (v10.5.3) and GraphPad Prism (v7.00) software. Single live lymphocytes were gated for B cells (CD20+CD3−) and T cells (CD3+CD20−), and the geometric mean fluorescence intensity (MFI) of CD86 and CD69 was calculated for each population. The MFI of the unstimulated sample was used to quantify baseline activation.
This example evaluates whether CTM treatment affects B cell receptor (BCR) signaling. BTK is activated downstream of the B cell receptor and leads to upregulation of activation markers CD86 and CD69 on the surface of B cells.

[11] = tested on: Mino cells; assay: Cell viability assay (CellTiter-Glo), Mino cells; assay type: cell-based; settings: Mino cells, treatment time 72 h
Source text: (§3) This example evaluates effects of CTM-mediated degradation on cell viability. […] Mino and Rec-1 are models of Mantle Cell Lymphoma, which is sensitive to IMiDs.

[12] = tested on: Rec-1 cells; assay: Cell viability assay (CellTiter-Glo), Rec-1 cells; assay type: cell-based
Source text: as §3

[13] = PO, 30 mg/kg, 21 days of dosing
[14] = Rat Sprague-Dawley, 10 mg/kg PO
[15] = 1.4 nM, fold-change of response relative to baseline
[16] = 37 nM, fold-change of response relative to baseline
[17] = 333 nM, fold-change of response relative to baseline (stimulation without compound)
[18] = oral dose 3 mg/kg, 6 h, blood, flow cytometry
[19] = oral dose 3 mg/kg, 24 h, blood, flow cytometry
[20] = IP, 10 mg/kg, 14 days of dosing
[21] = IP, 30 mg/kg, 14 days of dosing
[22] = IP, 30 mg/kg, 21 days of dosing

Row | AUC ([2]; Mouse Balb/c, 1 mg/kg IV) [µM·h] | clearance ([2]; Mouse Balb/c, 1 mg/kg IV) [mL/min/kg] | Vd ([2]; Mouse Balb/c, 1 mg/kg IV) [L/kg] | AUC ([2]; Mouse Balb/c, 30 mg/kg PO) [µM·h] | bioavailability ([2]; Mouse Balb/c, 30 mg/kg PO) [%] | BTK Remaining (% relative to vehicle) [6, 13] [%] | SMILES | Tumor Growth Inhibition (relative to vehicle) [1, 13] [%] | EC50 [3] [nM] | EMAX (% viable cells) [3] [%] | IL-2 Secretion Anti-CD3/Anti-CD28 Stimulation [4, 15] | IL-2 Secretion Anti-CD3/Anti-CD28 Stimulation [4, 16] | IL-2 Secretion Anti-CD3/Anti-CD28 Stimulation [4, 17] | CD25 Staining Anti-CD3/Anti-CD28 Stimulation ([5]; 1.4 nM) | CD69 Staining Anti-CD3/Anti-CD28 Stimulation ([5]; 1.4 nM) | CD25 Staining Anti-CD3/Anti-CD28 Stimulation ([5]; 37 nM) | CD69 Staining Anti-CD3/Anti-CD28 Stimulation ([5]; 37 nM) | CD25 Staining Anti-CD3/Anti-CD28 Stimulation ([5]; 333 nM) | CD69 Staining Anti-CD3/Anti-CD28 Stimulation ([5]; 333 nM) | EC50 [7] [nM] | EMAX (% viable cells) [7] [%] | also measured
1 | 2.75 | 7.5 | 0.88 | 96 | 113 | 19 | CN1CCN([C@@H]2CCCN(c3cnc(C(N)=O)c(Nc4ccc(C5CCN(C6CN(c7ccc8c(c7)C(=O)N(C7CCC(=O)NC7=O)C8=O)C6)CC5)cc4)n3)C2)C1=O (some centres unmarked) [Compound 53] | 27 | 16.1 | 24 | 1.22 | 2.08 | 2.53 | 1.09 | 1.06 | 1.14 | 1.07 | 0.84 | 0.83 | 2.24 | 16 | AUC ([2]; Rat Sprague-Dawley, 1 mg/kg IV): 0.31 µM·h; clearance ([2]; Rat Sprague-Dawley, 1 mg/kg IV): 75 mL/min/kg; Vd ([2]; Rat Sprague-Dawley, 1 mg/kg IV): 5.9 L/kg; AUC [2, 14]: 2.3 µM·h; bioavailability [2, 14]: 97%; DC50 [8]: 8 nM; % BTK Remaining [9, 18]: 35%; % BTK Remaining [9, 19]: 56%
2 | 0.29 | 68.3 | 4 | 0.81 | 9 | 22 | CN1CCN([C@H]2CCCN(c3cnc(C(N)=O)c(Nc4cnn(C5CCN(CC6CCN(c7ccc8c(c7)C(=O)N(C7CCC(=O)NC7=O)C8=O)CC6)CC5)c4)n3)C2)C1=O (some centres unmarked) [Compound 83] | 39 | 4.32 | 52 | – | – | – | – | – | – | – | – | – | 1.66 | 38 | EC50 ([10]; read-out: CD69 EC50): 0.08 nM; EC50 ([10]; read-out: CD86 EC50): 0.1 nM; DC50 [8]: 2.7 nM; % BTK Remaining [9, 18]: 48%; % BTK Remaining [9, 19]: 63%
3 | – | – | – | – | – | – | CN1CCN([C@@H]2CCCN(c3cnc(C(N)=O)c(Nc4ccc(N5CCN(CCCCc6cccc7c6CN(C6CCC(=O)NC6=O)C7=O)CC5)cc4)n3)C2)C1=O (some centres unmarked) [Compound 17] | – | 3.71 | 15 | 1.59 | 3.14 | 2.92 | 1.06 | 1.05 | 1.34 | 1.23 | 1.11 | 1.12 | 0.6 | 7 | Tumor Growth Inhibition (relative to vehicle) [1, 20]: 14%; Tumor Growth Inhibition (relative to vehicle) [1, 21]: 66%; Tumor Growth Inhibition (relative to vehicle) [1, 22]: 81%; BTK Remaining (% relative to vehicle) [6, 20]: 20%; BTK Remaining (% relative to vehicle) [6, 21]: 15%; BTK Remaining (% relative to vehicle) [6, 22]: 7%
4 | 8.64 | 2.4 | 0.48 | 74.3 | 29 | 27 | CN1CCN([C@@H]2CCCN(c3cnc(C(N)=O)c(Nc4ccc(N5CCC6(CC5)CCN(c5ccc7c(c5)C(=O)N(C5CCC(=O)NC5=O)C7=O)CC6)cc4)n3)C2)C1=O (some centres unmarked) [Compound 55] | 17 | 16.8 | 19 | – | – | – | – | – | – | – | – | – | 2.4 | 15 | DC50 [8]: 5.8 nM; % BTK Remaining ([9]; oral dose 0.3 mg/kg, 24 h, blood, flow cytometry): 83%; % BTK Remaining ([9]; oral dose 0.3 mg/kg, 24 h, splenocytes, flow cytometry): 114%; % BTK Remaining ([9]; oral dose 1 mg/kg, 6 h, splenocytes, HTRF, 1 mg/kg): 80% and 66%; % BTK Remaining ([9]; oral dose 3 mg/kg, 6 h, splenocytes, HTRF): 18%; % BTK Remaining [9, 19]: 55%; % BTK Remaining ([9]; oral dose 3 mg/kg, 24 h, splenocytes, flow cytometry): 72%; % BTK Remaining ([9]; oral dose 10 mg/kg, 24 h, blood, flow cytometry): 47%; % BTK Remaining ([9]; oral dose 10 mg/kg, 24 h, splenocytes, flow cytometry): 45%; % BTK Remaining ([9]; oral dose 30 mg/kg, 24 h, blood, flow cytometry): 39%; % BTK Remaining ([9]; oral dose 30 mg/kg, 24 h, splenocytes, flow cytometry): 36%; % BTK Remaining ([9]; oral dose 90 mg/kg, 24 h, blood, flow cytometry): 23%; % BTK Remaining ([9]; oral dose 90 mg/kg, 24 h, splenocytes, flow cytometry): 48%
5 | – | – | – | – | – | – | C=CC(=O)N1CCC[C@@H](n2nc(-c3ccc(Oc4ccccc4)cc3)c3c(N)ncnc32)C1 [Ibrutinib, reference compound] | – | 1040 | 46 | 0.84 | 0.85 | 0.34 | 0.92 | 0.89 | 0.74 | 0.74 | 0.22 | 0.22 | 3 | 16 | EC50 ([11]; Homo sapiens): 498 nM; EMAX (% viable cells) [11]: 79%; EC50 ([12]; Homo sapiens, Rec1, treatment time 72 h): 268 nM; EMAX (% viable cells) ([12]; treatment time 72 h): 68%
